{
  "source": "patent US10952940B2",
  "about": "“Reagents and methods for mineralization of tooth enamel” (UNIVERSITY OF WASHINGTON, priority 2016, dated 2021)",
  "key": {"[1]": {"assay": "In vitro re-mineralization of tea-stained human tooth using the peptide solution, optical images and line profile analysis", "protocol": "A caries-free human tooth was sterilized in 1% bleach solution for 24 hours then removed and vigorously rinsed with deionized water. The root site was removed and the crown sectioned vertically using a diamond blade. Pictures were taken with a camera attached to an optical microscope.\nThe exposed dentine sites were etched with 35% phosphoric acid (Ultraetch™) for 60 seconds (to facilitate the stain intake). The etching gel was removed by rinsing the sample with distilled water for 3 minutes. The staining solution was prepared by boiling 2 g of tea in 100 ml of deionized water for 5 minutes, which was then cooled down to room temperature and filtered. The tooth was soaked in the staining solution and incubated at 37° C. at 150 rpm for 24 hours. The tooth was then removed from the staining solution and sonicated for 30 seconds in deionized water (sonic bath) to remove the excess amount of tea particles attached to tooth extrinsically. The sectioned tooth was cut vertically in half again to form two quarter sections of the tooth. FIGS. 2(a) to 2(g) show various sections of the tooth after the staining. […] Figures (b), (c) and (d) show different views of the left quarter of the tooth that was sectioned from the tooth. […]"}, "[2]": {"assay": "Solution mineralization approach on tetracycline-stained teeth, Mean Pixel Intensity", "design": "species or system human", "conditions": "repeated rounds of remineralization", "text": "Human teeth, donated by the University of Washington School of Dentistry (Seattle, Wash., USA), were selected for their clean, smooth surfaces. The teeth were sterilized in bleach, cut on a diamond blade to remove the root, and halved. A thin layer of the enamel surface was then cut on one of the halves parallel to the previous cut, such that the dentin layer could be seen without completely removing the enamel on the tooth. This allowed imaging of the enamel surfaces after the mineralization experiment without the problem of surface reflection encountered in previous experiments, in addition to a more parallel surface from which to compare the brightness or whiteness results. The cut enamel side of the tooth sample was then sonicated in DI water and polished on diamond slurry smooth out the surface for imaging. The sample was then cut into quarters, with the lower half selected for a tetracycline experiment because of the even distribution of dentin coloring in the lower quarters of the tooth sample. The samples were then stained in 10 mg/mL tetracycline solution for five days.\nDuring mineralization, using a 96-well plate, one of the stained halves was stored in […] Tris (24 mM) as a negative control, and the experimental sample was incubated in 150 μL shADP5 (0.8 mM) at 37° C. for 10 minutes. […]"}, "[3]": {"assay": "Nanoindentation of mineralized layers in cross-section", "design": "species or system human", "text": "Similar to SEM specimen preparation, tooth samples were notched from the back of tooth before remineralization, then fractured along the notch. The specimens were then mounted in a room temperature-cure epoxy, and the cross-section of the fracture was polished to 0.1 μm finish using diamond lapping films (Allied High Tech Products Inc., Rancho Dominguez, Calif., USA). Nanoindentation measurements were made using a Triboindentor nanoindentation system (Hysitron Inc., Minneapolis, Minn., USA) in air. Hardness (H) and elastic modulus (Er) were determined by the software accompanying the nanoindentation unit.^40-42 In order to obtain the values that were not indentation volume dependent, maximum indentation depth for all measurements kept at 120±10 nm. All reported H and Er values were averaged over 20 measurements.\nNanoindentation, on the other hand, can handle a much smaller applied load, e.g., in the range of 700 to 800 μN; this range of loads to maintain a nominal total indentation depth of approximately 100 nm (<1 μm in indentation width) reasonable depth for both the WSL and mineralized layer regions. The method provides a dynamic measurement with the indentation system tracking continuously load vs. depth during the indentation process providing a Force-to-depth (F-d) profile of the mechanical response of the sample, including biological hard tissues such as enamel, dentin, and bone. The hardness and elastic modulus were extracted from the linear extrapolation of the unloading curve (see FIG. 14b). Hardness obtained by this method contains partial elastic deformation as well as plastic deformation. With small indentation depth and footprint, indentation characterization of the mineral layer only was possible in cross-section for the group 6 samples where mineral layers were more than 5 μm thick. All other treatment groups, reliable nanoindentation characterization of the layers […] because of the thin, and in some cases, discontinuous natural of the layers. It should also be noted that the nanomechanical properties of the artificially created lesion were also determined, with values similar to those of the mineralized layers. Regardless, the complete nanoindentation values are tabulated in Table 10 where each value represents more than 20 measurements per sample."}, "[4]": {"conditions": "mineralized layer, n ≥ 20, listed as Group 6 (shADP5)"}, "[5]": {"conditions": "mineralized layer, n ≥ 20, listed as group 6"}, "[6]": {"conditions": "underlying enamel of Group 6 samples"}},
  "data": [
    {"sequence": "SYENSHSQAINVDRT [shADP5, 15-amino acid long amelogenin-derived peptide, shortened human ADP5]", "values": [
      {"measurement": "Mean Pixel Intensity (MPI) compared with original and stained tooth", "setting": "[1]; ImageJ line profile, after staining and remineralization", "result": "higher MPI than the original tooth and the tooth after staining"},
      {"measurement": "tooth color compared with control", "setting": "[1]; tea-stained human tooth quarter, peptide 10 min 37° C., then CaCl2/KH2PO4 16 hours", "result": "lighter in color than the left quarter (control)"},
      {"measurement": "whiteness of the stained tooth", "setting": "[2]", "result": "improves with repeated rounds of remineralization"},
      {"measurement": "Elastic Modulus (nanoindentation)", "setting": "[3]; [4]", "result": "58.6 ± 4.7", "unit": "GPa"},
      {"measurement": "Hardness (nanoindentation)", "setting": "[3]; [4]", "result": "2.23 ± 0.23", "unit": "GPa"},
      {"measurement": "Elastic Modulus (nanoindentation)", "setting": "[3]; [5]", "result": "58.6±4.7", "unit": "GPa"},
      {"measurement": "Hardness (nanoindentation)", "setting": "[3]; [5]", "result": "2.23±0.23", "unit": "GPa"},
      {"measurement": "Elastic Modulus (nanoindentation)", "setting": "[3]; [6]", "result": "55.0 ± 4.6", "unit": "GPa"},
      {"measurement": "Hardness (nanoindentation)", "setting": "[3]; [6]", "result": "2.12 ± 0.21", "unit": "GPa"}
    ]}
  ]
}
